In PubChem BioAssay (NCI):
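Abbreviation: GI50, concentration required for 50% inhibition of growth. TGI denotes the concentration required for complete inhibition of growth.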

What was measured:
Assay in all cases: NCI anticancer screen, dose series, 384-well format
HOP-62 NSCLC = tested on: HOP-62 NSCLC
OVCAR-4 ovarian = tested on: OVCAR-4 ovarian
CCRF-CEM leukemia = tested on: CCRF-CEM leukemia
SN12C renal = tested on: SN12C renal
PC-3 prostate = tested on: PC-3 prostate
MDA-MB-435 melanoma = tested on: MDA-MB-435 melanoma
CAKI-1 renal = tested on: CAKI-1 renal
SK-MEL-28 melanoma = tested on: SK-MEL-28 melanoma
OVCAR-8 ovarian = tested on: OVCAR-8 ovarian
786-0 renal = tested on: 786-0 renal
TK-10 renal = tested on: TK-10 renal
MALME-3M melanoma = tested on: MALME-3M melanoma
BT-549 breast = tested on: BT-549 breast
MCF7 breast = tested on: MCF7 breast
SF-295 CNS = tested on: SF-295 CNS
SR leukemia = tested on: SR leukemia
SNB-75 CNS = tested on: SNB-75 CNS
RPMI-8226 leukemia = tested on: RPMI-8226 leukemia
SK-OV-3 ovarian = tested on: SK-OV-3 ovarian
HT29 colon = tested on: HT29 colon
EKVX NSCLC = tested on: EKVX NSCLC
HL-60(TB) leukemia = tested on: HL-60(TB) leukemia
UO-31 renal = tested on: UO-31 renal
OVCAR-3 ovarian = tested on: OVCAR-3 ovarian
HCC-2998 colon = tested on: HCC-2998 colon
LOX IMVI melanoma = tested on: LOX IMVI melanoma
OVCAR-5 ovarian = tested on: OVCAR-5 ovarian
M14 melanoma = tested on: M14 melanoma
NCI-H226 lung = tested on: NCI-H226 lung
NCI-H23 lung = tested on: NCI-H23 lung
COLO 205 colon = tested on: COLO 205 colon
SK-MEL-5 melanoma = tested on: SK-MEL-5 melanoma
U251 glioblastoma = tested on: U251 glioblastoma
MDA-MB-468 breast = tested on: MDA-MB-468 breast
DU-145 prostate = tested on: DU-145 prostate
UACC-62 melanoma = tested on: UACC-62 melanoma
SF-268 CNS = tested on: SF-268 CNS
HS 578T breast = tested on: HS 578T breast
IGROV1 ovarian = tested on: IGROV1 ovarian
SW-620 colon = tested on: SW-620 colon
MDA-MB-231 breast = tested on: MDA-MB-231 breast
SF-539 CNS = tested on: SF-539 CNS
UACC-257 melanoma = tested on: UACC-257 melanoma
HOP-92 NSCLC = tested on: HOP-92 NSCLC
NCI-H460 NSCLC = tested on: NCI-H460 NSCLC
NCI/ADR-RES ovarian = tested on: NCI/ADR-RES ovarian
NCI-H322M lung = tested on: NCI-H322M lung
MOLT-4 leukemia = tested on: MOLT-4 leukemia
A549 NSCLC = tested on: A549 NSCLC
T-47D breast = tested on: T-47D breast
RXF 393 renal = tested on: RXF 393 renal
K-562 leukemia = tested on: K-562 leukemia
HCT-15 colon = tested on: HCT-15 colon
NCI-H522 lung = tested on: NCI-H522 lung
ACHN renal = tested on: ACHN renal
SNB-19 CNS = tested on: SNB-19 CNS
KM12 colon = tested on: KM12 colon
A498 renal = tested on: A498 renal

Work on Cn1cncc1[C@@](N)(c1ccc(Cl)cc1)c1ccc2c(c1)c(-c1cccc(Cl)c1)cc(=O)n2C yielded a GI50 (HOP-62 NSCLC) of 1900 nM, a TGI (HOP-62 NSCLC) of 8680 nM and a GI50 (OVCAR-4 ovarian) of 1130 nM. It also gave a TGI (OVCAR-4 ovarian) of 5260 nM, a GI50 (CCRF-CEM leukemia) of less than 10 nM and a TGI (CCRF-CEM leukemia) of 1250 nM. For the same molecule, the GI50 (SN12C renal) was 179 nM, the TGI (SN12C renal) was 5390 nM and the GI50 (PC-3 prostate) was 1420 nM. The TGI (PC-3 prostate) was 6970 nM, the GI50 (MDA-MB-435 melanoma) was 189 nM and the TGI (MDA-MB-435 melanoma) was 1510 nM. It also gave a GI50 (CAKI-1 renal) of 2110 nM, a TGI (CAKI-1 renal) of 11900 nM and a GI50 (SK-MEL-28 melanoma) of 1370 nM. For the same molecule, the TGI (SK-MEL-28 melanoma) was 6440 nM, the GI50 (OVCAR-8 ovarian) was 2410 nM and the TGI (OVCAR-8 ovarian) was 12300 nM. For the same molecule, the GI50 ([…]-0 renal) was 1160 nM, the TGI (786-0 renal) was 8760 nM and the GI50 (TK-10 renal) was 1750 nM. For the same molecule, the TGI (TK-10 renal) was 6980 nM, the GI50 (MALME-3M melanoma) was 141 nM and the TGI (MALME-3M melanoma) was 2050 nM. The GI50 (BT-549 breast) was 1340 nM, the TGI (BT-549 breast) was 4320 nM and the GI50 (MCF7 breast) was 1080 nM. The TGI (MCF7 breast) was 3660 nM, the GI50 (SF-295 CNS) was 463 nM and the TGI (SF-295 CNS) was 2780 nM. For the same molecule, the GI50 (SR leukemia) was 12.9 nM, the TGI (SR leukemia) was 194 nM and the GI50 (SNB-75 CNS) was 1350 nM. For the same molecule, the TGI (SNB-75 CNS) was 4960 nM, the GI50 (RPMI-8226 leukemia) was 11.1 nM and the TGI (RPMI-8226 leukemia) was 218 nM. For the same molecule, the GI50 (SK-OV-3 ovarian) was 1260 nM, the TGI (SK-OV-3 ovarian) was 8170 nM and the GI50 (HT29 colon) was 1380 nM. The TGI (HT29 colon) was 3620 nM, the GI50 (EKVX NSCLC) was 1520 nM and the TGI (EKVX NSCLC) was 6020 nM. The GI50 (HL-60(TB) leukemia) was less than 10 nM, the TGI (HL-60(TB) leukemia) was 1280 nM and the GI50 (UO-31 renal) was 708 nM. For the same molecule, the TGI (UO-31 renal) was 9770 nM, the GI50 (OVCAR-3 ovarian) was 1250 nM and the TGI (OVCAR-3 ovarian) was 3770 nM. It also gave a GI50 (HCC-2998 colon) of 1270 nM, a TGI (HCC-2998 colon) of 3230 nM and a GI50 (LOX IMVI melanoma) of 1130 nM. For the same molecule, the TGI (LOX IMVI melanoma) was 3310 nM, the GI50 (OVCAR-5 ovarian) was 2490 nM and the TGI (OVCAR-5 ovarian) was 12200 nM. The GI50 (M14 melanoma) was 22 nM, the TGI (M14 melanoma) was 2210 nM and the GI50 (NCI-H226 lung) was 1080 nM. For the same molecule, the TGI (NCI-H226 lung) was 6960 nM, the GI50 (NCI-H23 lung) was 1510 nM and the TGI (NCI-H23 lung) was 4810 nM. For the same molecule, the GI50 (COLO 205 colon) was 1230 nM, the TGI (COLO 205 colon) was 3770 nM and the GI50 (SK-MEL-5 melanoma) was 313 nM. It also gave a TGI (SK-MEL-5 melanoma) of 2130 nM, a GI50 (U251 glioblastoma) of 1110 nM and a TGI (U251 glioblastoma) of 12600 nM. The GI50 (MDA-MB-468 breast) was 23.5 nM, the TGI (MDA-MB-468 breast) was 1830 nM and the GI50 (DU-145 prostate) was 2400 nM. For the same molecule, the TGI (DU-145 prostate) was 12100 nM, the GI50 (UACC-62 melanoma) was 173 nM and the TGI (UACC-62 melanoma) was 2750 nM. The GI50 (SF-268 CNS) was 1780 nM, the TGI (SF-268 CNS) was 11400 nM and the GI50 (HS 578T breast) was 1460 nM. The TGI (HS 578T breast) was 4620 nM, the GI50 (IGROV1 ovarian) was 1560 nM and the TGI (IGROV1 ovarian) was 4990 nM. The GI50 (SW-620 colon) was 1360 nM, the TGI (SW-620 colon) was 4410 nM and the GI50 (MDA-MB-231 breast) was 1520 nM. For the same molecule, the TGI (MDA-MB-231 breast) was 8300 nM, the GI50 (SF-539 CNS) was 1210 nM and the TGI (SF-539 CNS) was 4330 nM. For the same molecule, the GI50 (UACC-257 melanoma) was 1380 nM, the TGI (UACC-257 melanoma) was 4880 nM and the GI50 (HOP-92 NSCLC) was 271 nM. For the same molecule, the TGI (HOP-92 NSCLC) was 3620 nM, the GI50 (NCI-H460 NSCLC) was 391 nM and the TGI (NCI-H460 NSCLC) was 6170 nM. The GI50 (NCI/ADR-RES ovarian) was 1620 nM, the TGI (NCI/ADR-RES ovarian) was 5510 nM and the GI50 (NCI-H322M lung) was 2060 nM. For the same molecule, the TGI (NCI-H322M lung) was 15800 nM, the GI50 (MOLT-4 leukemia) was less than 10 nM and the TGI (MOLT-4 leukemia) was 57.9 nM. For the same molecule, the GI50 (A549 NSCLC) was 1640 nM, the TGI (A549 NSCLC) was 11100 nM and the GI50 (T-47D breast) was 64.5 nM. It also gave a TGI (T-47D breast) of 3670 nM, a GI50 (RXF 393 renal) of 472 nM and a TGI (RXF 393 renal) of 10100 nM. The GI50 (K-562 leukemia) was 200 nM, the TGI (K-562 leukemia) was 2050 nM and the GI50 (HCT-15 colon) was 884 nM. For the same molecule, the TGI (HCT-15 colon) was 5180 nM, the GI50 (NCI-H522 lung) was 1100 nM and the TGI (NCI-H522 lung) was 3850 nM. It also gave a GI50 (ACHN renal) of 1280 nM, a TGI (ACHN renal) of 5310 nM and a GI50 (SNB-19 CNS) of 2330 nM. It also gave a TGI (SNB-19 CNS) of 13200 nM, a GI50 (KM12 colon) of 186 nM and a TGI (KM12 colon) of 2310 nM. It also gave a GI50 (A498 renal) of 74.6 nM and a TGI (A498 renal) of 4040 nM.
